Results taken from patent US7049321B2, “Methods and pharmaceutical compositions for treatment of central and peripheral nervous system disorders and compounds useful therefor” (Israel Institute for Biological Research, priority 2002, dated 2006).

How the values were obtained:
CYP3A4 = CYP3A4 (Homo sapiens, UniProt P08684); test: Cytochrome P450 inhibition, CYP3A4; format: in vitro ADME; details: up to 10 μM
Method: Cytochrome P450 activity can be an indicator for potential drug-drug interactions. AF292 was evaluated in a microtiter plate assay for P450 inhibition.

M2 (human) = M2 (human) (Homo sapiens, UniProt P08172); test: Binding study, M2 (human); details: 10 μm
Chain of M2 (human) (P08172 whole entry): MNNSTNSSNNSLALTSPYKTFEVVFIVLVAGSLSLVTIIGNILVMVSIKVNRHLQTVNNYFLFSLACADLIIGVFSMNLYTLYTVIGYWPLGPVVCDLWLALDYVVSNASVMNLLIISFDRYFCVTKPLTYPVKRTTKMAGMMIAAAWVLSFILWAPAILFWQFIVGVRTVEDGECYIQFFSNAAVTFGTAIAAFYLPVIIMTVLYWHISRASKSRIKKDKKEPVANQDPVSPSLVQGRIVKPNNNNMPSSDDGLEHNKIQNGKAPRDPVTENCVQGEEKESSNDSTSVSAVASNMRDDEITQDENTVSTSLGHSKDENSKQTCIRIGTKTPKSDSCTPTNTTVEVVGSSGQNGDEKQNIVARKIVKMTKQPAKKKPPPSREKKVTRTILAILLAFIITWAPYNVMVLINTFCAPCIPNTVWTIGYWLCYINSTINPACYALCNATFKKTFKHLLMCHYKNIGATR

Chain of CYP3A4 (P08684 whole entry): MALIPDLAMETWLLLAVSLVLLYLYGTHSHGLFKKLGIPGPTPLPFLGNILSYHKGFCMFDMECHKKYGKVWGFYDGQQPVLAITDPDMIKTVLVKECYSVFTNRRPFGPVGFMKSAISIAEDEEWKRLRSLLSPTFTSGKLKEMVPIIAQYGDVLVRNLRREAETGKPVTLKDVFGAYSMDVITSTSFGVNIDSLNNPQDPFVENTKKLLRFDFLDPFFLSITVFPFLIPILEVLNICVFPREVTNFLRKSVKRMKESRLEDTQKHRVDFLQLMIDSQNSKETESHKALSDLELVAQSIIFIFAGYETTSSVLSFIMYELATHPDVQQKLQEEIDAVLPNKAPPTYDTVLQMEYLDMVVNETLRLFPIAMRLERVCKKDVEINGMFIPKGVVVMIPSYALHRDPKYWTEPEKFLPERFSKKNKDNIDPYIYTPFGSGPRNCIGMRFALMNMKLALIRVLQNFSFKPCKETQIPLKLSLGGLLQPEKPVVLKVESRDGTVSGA

## CC[C@@H]1SC2(CCNCC2)NC1=O [AF292, (S)-2-Ethyl-1-thia-4,8-diaza-spiro[4.5]decan-3-one]
CYP3A4
  Inhibition of CYP3A4: did not induce significant inhibition
M2 (human)
  Binding, %: 61%
